Test results reported in publication PMC5864730, “Peptide ion channel toxins from the bootlace worm, the longest animal on Earth” (Scientific Reports, 2018).
Positions of bridges follow the written chain, without caps; N, C: chain ends. Non-standard residues stand in square brackets, D forms with d. No end group written: not given here. Hyp = O=C(O)[C@@H]1C[C@@H](O)CN1

Tests used:
DmNaV1 = conditions: cited from earlier work
From the text: (§1) The α-1 induced alterations of gating kinetics resemble the effects of other peptide toxins known to be binding to the so-called neurotoxin binding site 3[18],[19]. Such toxins trap the voltage-sensing segment S4 of domain 4 in its inward or dea ...

BgNaV1 = conditions: cited from earlier work
From the text: as §1

[1] = biological target: voltage-gated sodium channel NaV1.6 (not stated (mNaV1.6 in the methods, human in the results)) (UniProt Q9WTU3)
[2] = biological target: Blattella germanica voltage-gated sodium channel BgNaV1 (Blattella germanica) (UniProt O01307)

ATX-II: sea anemone toxin
inhibition of inactivation (DmNaV1): complete inhibition of the inactivation | inhibition of inactivation (BgNaV1): complete inhibition of the inactivation

anthopleurin A: sea anemone toxin
inhibition of inactivation (DmNaV1): complete inhibition of the inactivation | inhibition of inactivation (BgNaV1): complete inhibition of the inactivation

GCIATGSFCTLSKGCCTKNCGWNFKCN[Hyp][Hyp]NQK (disulfide 15-26, 2-16, 9-20) [nemertide α-1]
two-electrode voltage clamp on oocytes: concentration-response curve on NaV1.6, EC50 (Figure S4C) [1]: 800 nM | two-electrode voltage clamp on oocytes: concentration-response curve of the toxin-induced modulation of BgNaV1 currents, EC50 [2]: 8.6 nM
